Assay results: patent US4175125A, “Method for treating methicillin resistant staphylococcus aureus” (Eli Lilly and Company, priority 1978, dated 1979)
Values after ≈ are worked out from the molar mass of the structure shown. Read-outs that look alike come from different tables or passages of the source.

Tested on: Staphylococcus aureus cultures
Experiment: Agar dilution MIC, Example 13 compound vs methicillin resistant Staphylococcus aureus
Format: cell-based
Details: read-out: MIC
Description: The table which follows gives the minimum inhibitory concentration (MIC) in micrograms of compound per milliliter of culture (μg/ml), in comparison with similar MIC values for the known antibiotics methicillin, cephalothin and cephaloridine against the same strains of bacteria.

[1] = culture 3055 (control), Trypticase Soy Agar with 4.5% NaCl added (5% NaCl)
[2] = culture 3055 (control), Trypticase Soy Agar, 0.5% NaCl
[3] = culture 3130, Trypticase Soy Agar with 4.5% NaCl added (5% NaCl)
[4] = culture 3130, Trypticase Soy Agar, 0.5% NaCl
[5] = culture 3131, Trypticase Soy Agar with 4.5% NaCl added (5% NaCl)
[6] = culture 3131, Trypticase Soy Agar, 0.5% NaCl
[7] = culture 3132, Trypticase Soy Agar with 4.5% NaCl added (5% NaCl)
[8] = culture 3132, Trypticase Soy Agar, 0.5% NaCl
[9] = culture 3133, Trypticase Soy Agar with 4.5% NaCl added (5% NaCl)
[10] = culture 3133, Trypticase Soy Agar, 0.5% NaCl
[11] = culture 3134, Trypticase Soy Agar with 4.5% NaCl added (5% NaCl)
[12] = culture 3134, Trypticase Soy Agar, 0.5% NaCl
[13] = culture 3135, Trypticase Soy Agar with 4.5% NaCl added (5% NaCl)
[14] = culture 3135, Trypticase Soy Agar, 0.5% NaCl
[15] = culture 3136, Trypticase Soy Agar with 4.5% NaCl added (5% NaCl)
[16] = culture 3136, Trypticase Soy Agar, 0.5% NaCl
[17] = culture 3137, Trypticase Soy Agar with 4.5% NaCl added (5% NaCl)
[18] = culture 3137, Trypticase Soy Agar, 0.5% NaCl
[19] = culture 3138, Trypticase Soy Agar with 4.5% NaCl added (5% NaCl)
[20] = culture 3138, Trypticase Soy Agar, 0.5% NaCl
[21] = culture 3139, Trypticase Soy Agar with 4.5% NaCl added (5% NaCl)
[22] = culture 3139, Trypticase Soy Agar, 0.5% NaCl
[23] = culture H232 (control), Trypticase Soy Agar with 4.5% NaCl added (5% NaCl)
[24] = culture H232 (control), Trypticase Soy Agar, 0.5% NaCl
[25] = culture Havarmak 1136501, Trypticase Soy Agar with 4.5% NaCl added (5% NaCl)
[26] = culture Havarmak 1136501, Trypticase Soy Agar, 0.5% NaCl
[27] = culture S 61, Trypticase Soy Agar with 4.5% NaCl added (5% NaCl)
[28] = culture S 61, Trypticase Soy Agar, 0.5% NaCl
[29] = culture Seattle 966, Trypticase Soy Agar with 4.5% NaCl added (5% NaCl)
[30] = culture Seattle 966, Trypticase Soy Agar, 0.5% NaCl

SMILES	MIC [1]	MIC [2]	MIC [3]	MIC [4]	MIC [5]	MIC [6]	MIC [7]	MIC [8]	MIC [9]	MIC [10]	MIC [11]	MIC [12]	MIC [13]	MIC [14]	MIC [15]	MIC [16]	MIC [17]	MIC [18]	MIC [19]	MIC [20]	other results
O=C(Cc1cccs1)N[C@@H]1C(=O)N2C(C(=O)[O-])=C(C[n+]3ccccc3)CS[C@H]12 [Cephaloridine, cephaloridine, reference compound]	0.13 µg/mL (≈ 0.313 µM)	0.03 µg/mL (≈ 0.0722 µM)	1 µg/mL (≈ 2.41 µM)	0.5 µg/mL (≈ 1.2 µM)	1 µg/mL (≈ 2.41 µM)	0.5 µg/mL (≈ 1.2 µM)	0.5 µg/mL (≈ 1.2 µM)	0.25 µg/mL (≈ 0.602 µM)	0.25 µg/mL (≈ 0.602 µM)	0.13 µg/mL (≈ 0.313 µM)	1 µg/mL (≈ 2.41 µM)	1 µg/mL (≈ 2.41 µM)	4 µg/mL (≈ 9.63 µM)	0.5 µg/mL (≈ 1.2 µM)	4 µg/mL (≈ 9.63 µM)	0.13 µg/mL (≈ 0.313 µM)	4 µg/mL (≈ 9.63 µM)	4 µg/mL (≈ 9.63 µM)	4 µg/mL (≈ 9.63 µM)	1 µg/mL (≈ 2.41 µM)	MIC [21]: 0.13 µg/mL (≈ 0.313 µM); MIC [22]: 0.5 µg/mL (≈ 1.2 µM); MIC [23]: 0.13 µg/mL (≈ 0.313 µM); MIC [24]: 0.06 µg/mL (≈ 0.144 µM); MIC [25]: 8 µg/mL (≈ 19.3 µM); MIC [26]: 1 µg/mL (≈ 2.41 µM); MIC [27]: 1 µg/mL (≈ 2.41 µM); MIC [28]: 1 µg/mL (≈ 2.41 µM); MIC [29]: 0.13 µg/mL (≈ 0.313 µM); MIC [30]: 0.5 µg/mL (≈ 1.2 µM)
COc1cccc(OC)c1C(=O)N[C@@H]1C(=O)N2[C@@H]1SC(C)(C)[C@@H]2C(=O)O [Methicillin, methicillin]	1 µg/mL (≈ 2.63 µM)	1 µg/mL (≈ 2.63 µM)	16 µg/mL (≈ 42.1 µM)	4 µg/mL (≈ 10.5 µM)	32 µg/mL (≈ 84.1 µM)	4 µg/mL (≈ 10.5 µM)	8 µg/mL (≈ 21 µM)	4 µg/mL (≈ 10.5 µM)	2 µg/mL (≈ 5.26 µM)	2 µg/mL (≈ 5.26 µM)	32 µg/mL (≈ 84.1 µM)	8 µg/mL (≈ 21 µM)	32 µg/mL (≈ 84.1 µM)	4 µg/mL (≈ 10.5 µM)	64 µg/mL (≈ 168 µM)	4 µg/mL (≈ 10.5 µM)	64 µg/mL (≈ 168 µM)	8 µg/mL (≈ 21 µM)	32 µg/mL (≈ 84.1 µM)	8 µg/mL (≈ 21 µM)	MIC [21]: 1 µg/mL (≈ 2.63 µM); MIC [22]: 2 µg/mL (≈ 5.26 µM); MIC [23]: 1 µg/mL (≈ 2.63 µM); MIC [24]: 2 µg/mL (≈ 5.26 µM); MIC [25]: 64 µg/mL (≈ 168 µM); MIC [26]: 8 µg/mL (≈ 21 µM); MIC [27]: 32 µg/mL (≈ 84.1 µM); MIC [28]: 4 µg/mL (≈ 10.5 µM); MIC [29]: 16 µg/mL (≈ 42.1 µM); MIC [30]: 4 µg/mL (≈ 10.5 µM)
